# PubChem BioAssay (NCI)
#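 GI50: concentration for 50% inhibition of growth. At the TGI there is no net growth.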
# Tests used:
# Assay in all cases: DTP human tumour cell line panel, 384-well format
# [1] = system: 786-0 renal
# [2] = system: A498 renal
# [3] = system: A549 NSCLC
# [4] = system: ACHN renal
# [5] = system: BT-549 breast
# [6] = system: CAKI-1 renal
# [7] = system: CCRF-CEM leukemia
# [8] = system: COLO 205 colon
# [9] = system: DU-145 prostate
# [10] = system: EKVX NSCLC
# [11] = system: HCC-2998 colon
# [12] = system: HCT-116 colon
# [13] = system: HCT-15 colon
# [14] = system: HOP-62 NSCLC
# [15] = system: HOP-92 NSCLC
# [16] = system: HT29 colon
# [17] = system: IGROV1 ovarian
# [18] = system: KM12 colon
# [19] = system: LOX IMVI melanoma
# [20] = system: M14 melanoma
# [21] = system: MCF7 breast
# [22] = system: MDA-MB-231 breast
# [23] = system: MDA-MB-435 melanoma
# [24] = system: NCI-H226 lung
# [25] = system: NCI-H23 lung
# [26] = system: NCI-H322M lung
# [27] = system: NCI-H460 NSCLC
# [28] = system: NCI/ADR-RES ovarian
# [29] = system: OVCAR-3 ovarian
# [30] = system: OVCAR-4 ovarian
# [31] = system: OVCAR-8 ovarian
# [32] = system: RPMI-8226 leukemia
# [33] = system: RXF 393 renal
# [34] = system: SF-268 CNS
# [35] = system: SF-539 CNS
# [36] = system: SK-MEL-2 melanoma
# [37] = system: SK-MEL-28 melanoma
# [38] = system: SK-MEL-5 melanoma
# [39] = system: SK-OV-3 ovarian
# [40] = system: SN12C renal
# [41] = system: SNB-19 CNS
# [42] = system: SR leukemia
# [43] = system: SW-620 colon
# [44] = system: U251 glioblastoma
# [45] = system: UACC-257 melanoma
# [46] = system: UACC-62 melanoma
# [47] = system: UO-31 renal
compound,measurement,setting,value
NC1(c2ccc(-c3nc4ccn5c(=O)[nH]nc5c4cc3-c3ccccc3)cc2)CCC1,GI50,[1],1.07 µM
same,TGI,[1],2.32 µM
same,GI50,[2],0.134 µM
same,TGI,[2],1.19 µM
same,GI50,[3],2.05 µM
same,TGI,[3],9.34 µM
same,GI50,[4],1.29 µM
same,TGI,[4],5.45 µM
same,GI50,[5],0.875 µM
same,TGI,[5],2.52 µM
same,GI50,[6],0.883 µM
same,TGI,[6],2.6 µM
same,GI50,[7],0.127 µM
same,TGI,[7],1.16 µM
same,GI50,[8],0.712 µM
same,TGI,[8],2.65 µM
same,GI50,[9],5.78 µM
same,TGI,[9],17.4 µM
same,GI50,[10],1.62 µM
same,TGI,[10],5.92 µM
same,GI50,[11],1.39 µM
same,TGI,[11],2.78 µM
same,GI50,[12],1.52 µM
same,TGI,[12],2.96 µM
same,GI50,[13],1.4 µM
same,TGI,[13],2.78 µM
same,GI50,[14],2.68 µM
same,TGI,[14],7.93 µM
same,GI50,[15],1.16 µM
same,TGI,[15],2.66 µM
same,GI50,[16],1.29 µM
same,TGI,[16],2.69 µM
same,GI50,[17],0.188 µM
same,TGI,[17],2.39 µM
same,GI50,[18],2.32 µM
same,TGI,[18],7.07 µM
same,GI50,[19],1.58 µM
same,TGI,[19],2.95 µM
same,GI50,[20],1.44 µM
same,TGI,[20],2.77 µM
same,GI50,[21],0.135 µM
same,TGI,[21],1.72 µM
same,GI50,[22],2.49 µM
same,TGI,[22],6.52 µM
same,GI50,[23],2.36 µM
same,TGI,[23],7.21 µM
same,GI50,[24],2.08 µM
same,TGI,[24],7.36 µM
same,GI50,[25],2.49 µM
same,TGI,[25],7.48 µM
same,GI50,[26],2.44 µM
same,TGI,[26],10.2 µM
same,GI50,[27],0.463 µM
same,TGI,[27],2.86 µM
same,GI50,[28],3.18 µM
same,TGI,[28],12.1 µM
same,GI50,[29],0.859 µM
same,TGI,[29],4.78 µM
same,GI50,[30],2.79 µM
same,TGI,[30],7.48 µM
same,GI50,[31],1.76 µM
same,TGI,[31],3.96 µM
same,GI50,[32],1.48 µM
same,TGI,[32],3.24 µM
same,GI50,[33],0.863 µM
same,TGI,[33],2.23 µM
same,GI50,[34],2.73 µM
same,TGI,[34],7.37 µM
same,GI50,[35],0.815 µM
same,TGI,[35],2.08 µM
same,GI50,[36],1.59 µM
same,TGI,[36],2.95 µM
same,GI50,[37],1.2 µM
same,TGI,[37],2.5 µM
same,GI50,[38],0.777 µM
same,TGI,[38],1.93 µM
same,GI50,[39],0.763 µM
same,TGI,[39],2.3 µM
same,GI50,[40],4.04 µM
same,TGI,[40],16.3 µM
same,GI50,[41],2.55 µM
same,TGI,[41],7.45 µM
same,GI50,[42],1.14 µM
same,TGI,[42],2.36 µM
same,GI50,[43],4.69 µM
same,TGI,[43],8.9 µM
same,GI50,[44],1.86 µM
same,TGI,[44],4.53 µM
same,GI50,[45],1.54 µM
same,TGI,[45],2.89 µM
same,GI50,[46],1.45 µM
same,TGI,[46],5.45 µM
same,GI50,[47],2.2 µM
same,TGI,[47],6.72 µM
